Data reported in the CheMixHub ionic liquid set.
± gives the uncertainty stated by the source.

Assay: xn = mol fraction of the nth substance listed

CCCCn1cc[nH+]c1.O=S(=O)([N-]S(=O)(=O)C(F)(F)F)C(F)(F)F + N
313.2 K, 101 kPa
Details | viscosity [mPa·s]
x1 = 0.2924 | 9.9 ± 1.1
x1 = 0.337 | 12.9 ± 1.4
x1 = 0.4007 | 19.3 ± 2.1
x1 = 0.4495 | 24.3 ± 2.6
x1 = 0.477 | 27.7 ± 3
x1 = 0.4904 | 29.1 ± 3.1
x1 = 0.575 | 38.7 ± 4.1
x1 = 0.6515 | 45.8 ± 4.9
x1 = 0.7028 | 51.3 ± 5.5
x1 = 0.7906 | 54.5 ± 5.9
x1 = 0.8999 | 52.5 ± 5.7
x1 = 1 | 47.2 ± 5.1

C[S+](C)C.O=S(=O)([N-]S(=O)(=O)C(F)(F)F)C(F)(F)F + N#CCCCC#N
101 kPa, x1 = 0.2085
Details | viscosity [mPa·s]
278 K | 21.84 ± 0.29
303 K | 9.44 ± 0.12
318 K | 6.433 ± 0.078
328 K | 5.159 ± 0.062
333 K | 4.664 ± 0.055
338 K | 4.238 ± 0.05
348 K | 3.558 ± 0.042

CCCCCC[n+]1ccn(C)c1.F[B-](F)(F)F + NC(N)=O + O
298.15 K, 100 kPa
Details | viscosity [mPa·s]
x2 = 0, x1 = 0.0153 | 2.79 ± 0.14
x2 = 0.008814, x3 = 0.9759 | 2.96 ± 0.15
x2 = 0.01758, x3 = 0.9671 | 2.88 ± 0.15
x2 = 0.02591, x3 = 0.9588 | 2.91 ± 0.15
x2 = 0.03448, x3 = 0.9502 | 2.92 ± 0.15
x2 = 0.04235, x3 = 0.9424 | 2.94 ± 0.15
